Positions count from the first letter of the chain named.
Tests used:
β(1,4)-Gal-T1(Y289L) = target: T1, β(1,4)-Gal-T1(Y289L) (Bos taurus, UniProt P08037, I205M/L206V/P187L/V158I/Y289L); test: Glycosyltransfer of UDP-galactosamine derivatives to trimmed trastuzumab with Gal-T1(Y289L) expressed in E. coli, mass spectral analysis; type: biochemical, bovine; settings: trimmed trastuzumab 10 mg/mL, pH 8.0, 30° C. overnight, reduced sample
T1 construct: made in house; host or cells: E. coli
T1 sequence (P08037 1-402 V158I/P187L/I205M/L206V/Y289L): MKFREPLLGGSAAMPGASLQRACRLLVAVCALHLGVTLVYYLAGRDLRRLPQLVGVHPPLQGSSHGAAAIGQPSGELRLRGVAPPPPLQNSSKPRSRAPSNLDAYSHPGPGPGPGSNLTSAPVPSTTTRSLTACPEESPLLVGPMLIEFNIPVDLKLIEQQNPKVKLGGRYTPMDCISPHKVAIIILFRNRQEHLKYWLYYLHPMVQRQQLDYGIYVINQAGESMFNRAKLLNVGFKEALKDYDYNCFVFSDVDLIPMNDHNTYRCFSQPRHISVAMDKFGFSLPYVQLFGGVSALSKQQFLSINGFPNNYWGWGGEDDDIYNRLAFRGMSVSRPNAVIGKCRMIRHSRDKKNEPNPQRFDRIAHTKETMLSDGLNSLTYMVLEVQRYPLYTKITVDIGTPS
Procedure: General Protocol for Glycosyltransfer of Galactose Derivative UDP-GalNAz 21-24 with Gal-T1(Y289L) (Expressed in E. coli).
Enzymatic introduction of UDP-Gal derivatives 21-24 onto deglycosylated trastuzumab was effected with a mutant of bovine β(1,4)-galactosyltransferase [β(1,4)-Gal-T1(Y289L)] (expressed in E. coli). The deglycosylated trastuzumab (10 mg/mL) was incubated with the appropriate UDP-galactose derivative (0.4 mM) and β(1,4)-Gal-T1(Y289L) (1 mg/mL) in 10 mM MnCl2 and 25 mM Tris-HCl pH 8.0 for 16 hours at 30° C.
Next, the functionalized trastuzumab was incubated with protein A agarose (40 μL per mg IgG) for 2 hours at 4° C. The protein A agarose was washed three times with PBS and the IgG was eluted with 100 mM glycine-HCl pH 2.7. The eluted IgG was neutralized with 1 M Tris-HCl pH 8.0 and concentrated and washed with PBS using an Amicon Ultra-0.5, Ultracel-10 Membrane (Millipore) to a concentration of 15-20 mg/mL.
Trimmed trastuzumab (10 mg/mL, 3.3 nmol), obtained by Endo S treatment of trastuzumab, was incubated with UDP-galactosamine variant 21 (2.5 mM) and β(1,4)-Gal-T1(Y289L) (0.68 mg/mL, 45 μL) in 10 mM MnCl2 and 25 mM Tris-HCl pH 8.0 at 30° C. overnight.
Trimmed trastuzumab (10 mg/mL, 1.3 nmol), obtained by Endo S treatment of trastuzumab, was incubated with UDP-galactosamine variant 22 (4 mM) and β(1,4)-Gal-T1(Y289L) (1.4 mg/mL, 10 μL) in 10 mM MnCl2 and 25 mM Tris-HCl pH 8.0 at 30° C. overnight. Mass spectral analysis of the reduced sample indicated the formation of the product (49750.9 Da, approximately 80% of total heavy chain), resulting from galactosamide furan-2-carboxyl acid transfer to core GlcNAc(Fuc) substituted trastuzumab heavy chain as shown in FIG. 9.
Trimmed trastuzumab (10 mg/mL, 6.6 nmol), obtained by Endo S treatment of trastuzumab, was incubated with the 4-azido-3,5-difluorobenzoyl derivative of UDP-galactosamine (23, 7 mM) and β(1,4)-Gal-T1(Y289L) (2 mg/mL) in 10 mM MnCl2 and 25 mM Tris-HCl pH 8.0 at 30° C. overnight. Mass spectral analysis of the reduced sample indicated the formation of a one major product (49813 Da, approximately 90% of total heavy chain), resulting from transfer of 23 to core GlcNAc(Fuc)-substituted trastuzumab heavy chain.
Trimmed trastuzumab (10 mg/mL, 1.3 nmol), obtained by Endo S treatment of trastuzumab, was incubated with UDP-galactosamine variant 24 (4 mM) and (3(1,4)-Gal-T1(Y289L) (1.4 mg/mL, 10 μL) in 10 mM MnCl2 and 25 mM Tris-HCl pH 8.0 at 30° C. overnight.

Gal-T1(Y289L,C342T) = target: T2, Gal-T1(Y289L,C342T) (Bos taurus, UniProt P08037, C342T/Y289L); test: Glycosyltransfer to trimmed trastuzumab with Gal-T1(Y289L,C342T) expressed in CHO; type: biochemical, bovine; settings: trimmed trastuzumab 10 mg/mL; UDP derivative 1 mM; enzyme 1.0 mg/mL; pH 8.0, 30° C. overnight
T2 construct: host or cells: CHO K1
T2 sequence (P08037 74-402 V158I/P187L/I205M/L206V/Y289L/C342T): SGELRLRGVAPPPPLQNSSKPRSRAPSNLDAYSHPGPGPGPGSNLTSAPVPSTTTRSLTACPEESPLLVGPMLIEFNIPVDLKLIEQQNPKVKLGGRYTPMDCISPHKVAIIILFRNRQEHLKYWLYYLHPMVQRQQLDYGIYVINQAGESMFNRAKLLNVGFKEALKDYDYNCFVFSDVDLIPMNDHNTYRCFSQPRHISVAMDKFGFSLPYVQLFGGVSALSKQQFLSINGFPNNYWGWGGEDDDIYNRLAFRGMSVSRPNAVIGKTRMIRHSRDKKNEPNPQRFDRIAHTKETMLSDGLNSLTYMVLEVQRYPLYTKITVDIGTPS
Procedure: (§1) A solution of 20 μg (modified) IgG was incubated for 1 hour at 37° C. with Fabricator™ (commercially available from Genovis, Lund, Sweden) (1.25 U/μL) in phosphate-buffered saline (PBS) pH 6.6 in a total volume of 10 μL. Fabricator™-digested samples were washed trice with milliQ using an Amicon Ultra-0.5, Ultracel-10 Membrane (Millipore) resulting in a final sample volume of approximately 40 μL. The Fc/2 fragment was analyzed by electrospray ionization time-of-flight (ESI-TOF) on a JEOL AccuTOF. Deconvoluted spectra were obtained using Magtran software.
(§2) A set of Gal-T 1 mutants encoding residues 74-402 of bovine Gal-T 1 were transiently expressed in CHO K1 cells by Evitria (Zurich, Switzerland) which include the Gal-T1 single mutants Y289L (represented by SEQ ID NO: 26), Y289F (represented by SEQ ID NO: 27), Y289M (represented by SEQ ID NO: 28), Y289V (represented by SEQ ID NO: 29), Y289A (represented by SEQ ID NO: 30), and Y289G (represented by SEQ ID NO: 31), and the Gal-T1 double mutants Y289L,C342T (represented by SEQ ID NO: 32), and Y289M,C342T (represented by SEQ ID NO: 33). The mutants were purified using a cation exchange column (Source 15S HR16/10 column, GE Healthcare) as described above. Purified proteins were analyzed by SDS-PAGE. […]

Gal-T1(Y289M,C342T) = target: T3, Gal-T1(Y289M,C342T) (Bos taurus, UniProt P08037, C342T/Y289M); test: Glycosyltransfer to trimmed trastuzumab with Gal-T1(Y289M,C342T) expressed in CHO; type: biochemical, bovine; settings: trimmed trastuzumab 10 mg/mL; UDP derivative 5 mM; enzyme 1.0 mg/mL; pH 8.0, 30° C. overnight
T3 construct: host or cells: CHO K1
T3 sequence (P08037 74-402 V158I/P187L/I205M/L206V/Y289M/C342T): T2 sequence (P08037 74-402 V158I/P187L/I205M/L206V/Y289L/C342T) with L216M
Procedure: as §1, §2

β4Gal-T1 = target: T4, β4Gal-T1 (Bos taurus, UniProt P08037); settings: native enzyme; cited from earlier work
T4 sequence (P08037 1-402): T1 sequence (P08037 1-402 V158I/P187L/I205M/L206V/Y289L) with I158V, L187P, M205I, V206L, L289Y

β4Gal-T1(Y289L) = target: T5, β4Gal-T1(Y289L) (Bos taurus, UniProt P08037, Y289L); settings: GlcNAc acceptor; cited from earlier work
T5 sequence (P08037 1-402 Y289L): T1 sequence (P08037 1-402 V158I/P187L/I205M/L206V/Y289L) with I158V, L187P, M205I, V206L

[1] = UDP derivative 4 mM, enzyme 1.4 mg/mL

## O=C(NC1C(OP(=O)(O)OP(=O)(O)OCC2OC(n3ccc(=O)[nH]c3=O)C(O)C2O)OC(CO)C(O)C1O)c1cccnc1 (stereo not shown) [Compound 21, 3-pyridylcarbonyl Derivative of UDP-GalNH2]
β(1,4)-Gal-T1(Y289L); UDP derivative 2.5 mM, enzyme 0.68 mg/mL
  product, % of total heavy chain: approximately 5%

## O=C(NC1C(OP(=O)(O)OP(=O)(O)OCC2OC(n3ccc(=O)[nH]c3=O)C(O)C2O)OC(CO)C(O)C1O)c1ccco1 (stereo not shown) [Compound 22, Furylcarbonyl Derivative of UDP-GalNH2]
β(1,4)-Gal-T1(Y289L); [1]
  product, % of total heavy chain: approximately 80%

## [N-]=[N+]=Nc1c(F)c(F)c(C(=O)N[C@H]2[C@@H](OP(=O)(O)OP(=O)(O)OC[C@H]3O[C@@H](n4ccc(=O)[nH]c4=O)[C@H](O)[C@@H]3O)O[C@H](CO)[C@H](O)[C@@H]2O)c(F)c1F [Compound 23b, 4-azido-2,3,5,6-tetrafluorobenzoyl Derivative of UDP-GalNH2]
Gal-T1(Y289L,C342T)
  conversion into product: approximately 70%
Gal-T1(Y289M,C342T)
  conversion into product: approximately 10%

## O=C(NC1C(OP(=O)(O)OP(=O)(O)OCC2OC(n3ccc(=O)[nH]c3=O)C(O)C2O)OC(CO)C(O)C1O)C1CCCC1 (stereo not shown) [Compound 24, Cyclopentylcarbonyl Derivative of UDP-GalNH2]
β(1,4)-Gal-T1(Y289L); [1]
  product, % of total heavy chain: approximately 90%

## CC(=O)N[C@H]1[C@@H](OP(=O)(O)OP(=O)(O)OC[C@H]2O[C@@H](n3ccc(=O)[nH]c3=O)[C@H](O)[C@@H]2O)O[C@H](CO)[C@H](O)[C@@H]1O [UDP-GalNAc]
β4Gal-T1
  efficiency of GalNAc transfer compared to Gal transfer from UDP-Gal: 0.1%
β4Gal-T1(Y289L)
  efficiency of GalNAc transfer relative to β4Gal-T1/Gal transfer: ~100%

Source: patent US20170009266A1, “PROCESS FOR THE ATTACHMENT OF A GALNAC MOIETY COMPRISING A (HETERO)ARYL GROUP TO A GLCNAC MOIETY, AND PRODUCT OBTAINED THEREBY” (SYNAFFIX B.V., priority 2014, published 2017)
